Entries after “also recorded” stand apart in the source; their conditions may differ.
Tests used:
Type in all cases: in vivo, human
[1] = system: patients with essential tremor; experiment: T-CALM: QUEST questionnaire, items on anti-tremor medication
[2] = system: patients with essential tremor; experiment: T-CALM: TETRAS activities of daily living subscale; details: for TETRAS-ADL Score change from baseline, Median (minimum, maximum): Day 15, post-hoc
Procedure: The sum of the individual scores provides the overall score, ranging from 0 to 48. The complete TETRAS ADL Subscale is as follows.
Analyses of the TETRAS-ADL was conducted using the same type of ANCOVA model as described for the TETRAS-PS, using two-sided tests at the alpha=0.05 level of significance (FIG. 2 and Table 2).
(§1) Both sets of scores were statistically analyzed.

[3] = system: patients with essential tremor; experiment: T-CALM: TETRAS performance subscale, independent video raters; details: Day 28
Source text: as §1

[4] = system: patients with essential tremor; experiment: T-CALM: treatment-emergent adverse events, discontinuations, dosage reductions
Procedure: T-CALM employed the following dose titration scheme: Week 1 at 4 mg BID (8 mg/day), Week 2 at 8 mg BID (16 mg/day) and Weeks 3 & 4 at 10 mg BID (20 mg/day). […] Adverse Events were coded using MedDRA V20.0. Only treatment emergent adverse events with an onset date and time after the initiation of study drug until 30 days after discontinuation of drug were reported. For subjects who experience the same coded event more than once, a single event was presented. Adverse events were attributed to a study week based on the onset date, i.e. events that started on or after Visit 1 and prior to Visit 2 were classified as Study Week 1.
Adverse events are characterized by maximum severity, drug-related adverse events, serious adverse events and adverse events leading to discontinuation of study.
Safety procedures involved collection of all TEAEs (treatment-emergent adverse events) coded into the Medical Dictionary for Regulatory Activities (MedDRA) version 20. Adverse events were classified by maximum severity, drug-related adverse events, serious adverse events, and adverse events leading to patient discontinuation.

[5] = Day 15, change from baseline, N = 39
[6] = Day 28, change from baseline, N = 37
[7] = N = 48, inadequate drug supply at Visit 4

## CC(C)c1ccc(CC(=O)N[C@H](C)c2ccc(OCC(F)(F)F)cn2)cc1 [CX-8998]
[1]; Day 15
  QUEST: Side effect from tremor medication in past month? answer No, patients, number (%): 25 (64%)
  QUEST: Side effect from tremor medication in past month? answer Yes, patients, number (%): 14 (36%)
[1]; Day 28
  QUEST: Side effect from tremor medication in past month? answer No, patients, number (%): 30 (77%)
  QUEST: Side effect from tremor medication in past month? answer Yes, patients, number (%): 7 (18%)
[2]; Day 15, N 39
  Subjects with improvement of at least 5 points by TETRAS-ADL score, number: 18
[2]; [5]
  TETRAS-ADL Score, subjects with 0 change, n (%): 2 (5.1%)
  TETRAS-ADL Score, subjects with >0 to 1 point improvement, n (%): 5 (12.8%)
  TETRAS-ADL Score, subjects with >0 to 1 point worsening, n (%): 1 (2.6%)
  TETRAS-ADL Score, subjects with >1 to 2.5 point improvement, n (%): 2 (5.1%)
  TETRAS-ADL Score, subjects with >1 to 2.5 point worsening, n (%): 3 (7.7%)
  TETRAS-ADL Score, subjects with >2.5 to 5 point improvement, n (%): 7 (17.9%)
  TETRAS-ADL Score, subjects with >2.5 to 5 point worsening, n (%): 3 (7.7%)
  TETRAS-ADL Score, subjects with >5 to 10 point improvement, n (%): 11 (28.2%)
  TETRAS-ADL Score, subjects with >5 to 10 point worsening, n (%): 0
  TETRAS-ADL Score, subjects with >10 point improvement, n (%): 5 (12.8%)
  TETRAS-ADL Score, subjects with >10 point worsening, n (%): 0
[2]; patients Minimally Improved by CGI-I
  TETRAS-ADL Score change from baseline, Median (minimum, maximum): −2.0 (−11, 3)
[2]; patients Minimally Improved by PGIC
  TETRAS-ADL Score change from baseline, Median (minimum, maximum): −4.0 (−13, 4)
[2]; Day 28, N 37
  Subjects with improvement of at least 5 points by TETRAS-ADL score, number: 11
[2]; [6]
  TETRAS-ADL Score, subjects with 0 change, n (%): 5 (13.5%)
  TETRAS-ADL Score, subjects with >0 to 1 point improvement, n (%): 2 (5.4%)
  TETRAS-ADL Score, subjects with >0 to 1 point worsening, n (%): 3 (8.1%)
  TETRAS-ADL Score, subjects with >1 to 2.5 point improvement, n (%): 3 (8.1%)
  TETRAS-ADL Score, subjects with >1 to 2.5 point worsening, n (%): 3 (8.1%)
  TETRAS-ADL Score, subjects with >2.5 to 5 point improvement, n (%): 7 (18.9%)
  TETRAS-ADL Score, subjects with >2.5 to 5 point worsening, n (%): 3 (8.1%)
  TETRAS-ADL Score, subjects with >5 to 10 point improvement, n (%): 6 (16.2)
  TETRAS-ADL Score, subjects with >5 to 10 point worsening, n (%): 0
  TETRAS-ADL Score, subjects with >10 point improvement, n (%): 5 (13.5%)
  TETRAS-ADL Score, subjects with >10 point worsening, n (%): 0
[3]
  LS mean (±SE) change from baseline in TETRAS-PS scored by independent video raters (primary endpoint): −1.8±0.81
[4]; N = 48
  Discontinuation due to Nervous System Disorders, subjects, percent: (8%)
  Discontinuation due to Psychiatric Disorders, subjects, number: 4
  Discontinuation due to Psychiatric Disorders, subjects, percent: (8%)
  Dosage reduced during study, subjects, percent: (8%)
  Dosage reduction due to adverse event, subjects, number: 3
  Dosage reduction due to adverse event, subjects, percent: (6%)
  Subjects with at least 1 event leading to discontinuation, number: 8
  Subjects with at least 1 event leading to discontinuation, percent: (17%)
[4]; [7]
  Dosage reduction due to other reasons, subjects, number: 1
  Dosage reduction due to other reasons, subjects, percent: (2%)^3
[4]; Safety Analysis Set, n = 48
  TEAE Ear and Labyrinth Disorders (system organ class), subjects, number (%): 2 (4%)
  TEAE Gastrointestinal Disorders (system organ class), subjects, number (%): 9 (19%)
  TEAE Infections and Infestations (system organ class), subjects, number (%): 4 (8%)
  TEAE Nervous System Disorders (system organ class), subjects, number (%): 20 (42%)
  TEAE Psychiatric Disorders (system organ class), subjects, number (%): 12 (52%)
[4]; T-CALM
  Dosage reduction due to TEAEs, patients: 6%
  Serious adverse events (alcohol withdrawal syndrome, major depression, suicidal ideation), deemed unrelated to study drug: one patient
  patients with at least 1 TEAE: 58%
[4]; T-CALM, N=48
  Discontinuation due to adverse events (TEAEs), patients n (%): 8 (17%)
[4]; T-CALM, n = 48
  TEAE Abnormal dreams, n (%): 2 (4%)
  TEAE Disturbance in attention, n (%): 2 (4%)
  TEAE Dizziness, n (%): 10 (21%)
  TEAE Dry mouth, n (%): 2 (4%)
  TEAE Dysgeusia, n (%): 2 (4%)
  TEAE Ear and Labyrinth Disorders, n (%): 2 (4%)
  TEAE Euphoric mood, n (%): 3 (6%)
  TEAE Gastrointestinal Disorders, n (%): 9 (19%)
  TEAE Hallucination, n (%): 2 (4%)
  TEAE Headache, n (%): 4 (8%)
  TEAE Hypesthesia, n (%): 0
  TEAE Infections and Infestations, n (%): 4 (8%)
  TEAE Insomnia, n (%): 3 (6%)
  TEAE Nausea, n (%): 1 (2%)
  TEAE Nervous System Disorders, n (%): 20 (42%)
  TEAE Paraesthesia, n (%): 2 (4%)
  TEAE Somnolence, n (%): 1 (2%)
  TEAE Tinnitus, n (%): 2 (4%)
  TEAE Urinary Tract Infection, n (%): 2 (4%)
  TEAE Vomiting, n (%): 0
[4]; T-CALM, up to 10 mg BID
  safety and tolerability in ET patients: safe and well tolerated
[4]; individual subjects 26-001 (10 to 8 mg BID), 31-023 (8 to 4 mg BID), 33-004 (4 to 2 mg BID), one line each, considered related to study drug
  Adverse Event (MedDRA Preferred Term) leading to dosage reduction: Anxiety; also recorded: Electrocardiogram; also recorded: Headache
[4]; onset in study week 1
  AE Any Event, percent of subjects: (40%)
  AE Central Nervous System Disorders, number of subjects: 16
  AE Central Nervous System Disorders, percent of subjects: (33%)
  AE Ear and Labyrinth Disorders, number of subjects: 2
  AE Ear and Labyrinth Disorders, percent of subjects: (4%)
  AE Eye Disorders, number of subjects: 1
  AE Eye Disorders, percent of subjects: (2%)
  AE Gastrointestinal Disorders, number of subjects: 7
  AE Gastrointestinal Disorders, percent of subjects: (15%)
  AE Infections and Infestations, number of subjects: 0
  AE Injury, Poisoning and Procedural Complications, percent of subjects: (2%)
  AE Investigations, number of subjects: 1
  AE Investigations, percent of subjects: (2%)
  AE Metabolism and Nutrition Disorders, number of subjects: 1
  AE Metabolism and Nutrition Disorders, percent of subjects: (2%)
  AE Musculoskeletal and Connective Tissue Disorders, number of subjects: 1
  AE Musculoskeletal and Connective Tissue Disorders, percent of subjects: (2%)
  AE Neoplasms, number of subjects: 1
  AE Neoplasms, percent of subjects: (2%)
  AE Psychiatric Disorders, number of subjects: 8
  AE Psychiatric Disorders, percent of subjects: (17%)
  AE Respiratory, Thoracic and Mediastinal Disorders, percent of subjects: (2%)
  AE Skin and Subcutaneous Tissue Disorders, number of subjects: 1
  AE Skin and Subcutaneous Tissue Disorders, percent of subjects: (2%)
  AE Vascular Disorders, number of subjects: 0
[4]; onset in study week 2
  AE Any Event, percent of subjects: (21%)
  AE Central Nervous System Disorders, number of subjects: 4
  AE Central Nervous System Disorders, percent of subjects: (8%)
  AE Ear and Labyrinth Disorders, number of subjects: 0
  AE Eye Disorders, number of subjects: 0
  AE Gastrointestinal Disorders, number of subjects: 1
  AE Gastrointestinal Disorders, percent of subjects: (2%)
  AE Infections and Infestations, number of subjects: 2
  AE Infections and Infestations, percent of subjects: (4%)
  AE Investigations, number of subjects: 1
  AE Investigations, percent of subjects: (2%)
  AE Metabolism and Nutrition Disorders, number of subjects: 0
  AE Musculoskeletal and Connective Tissue Disorders, number of subjects: 1
  AE Musculoskeletal and Connective Tissue Disorders, percent of subjects: (2%)
  AE Neoplasms, number of subjects: 0
  AE Psychiatric Disorders, number of subjects: 2
  AE Psychiatric Disorders, percent of subjects: (4%)
  AE Skin and Subcutaneous Tissue Disorders, number of subjects: 0
  AE Vascular Disorders, number of subjects: 1
  AE Vascular Disorders, percent of subjects: (2%)
[4]; onset in study week 3
  AE Any Event, percent of subjects: (17%)
  AE Central Nervous System Disorders, number of subjects: 1
  AE Central Nervous System Disorders, percent of subjects: (2%)
  AE Ear and Labyrinth Disorders, number of subjects: 0
  AE Eye Disorders, number of subjects: 0
  AE Gastrointestinal Disorders, number of subjects: 1
  AE Gastrointestinal Disorders, percent of subjects: (2%)
  AE Infections and Infestations, number of subjects: 2
  AE Infections and Infestations, percent of subjects: (4%)
  AE Injury, Poisoning and Procedural Complications, percent of subjects: (2%)
  AE Investigations, number of subjects: 1
  AE Investigations, percent of subjects: (2%)
  AE Metabolism and Nutrition Disorders, number of subjects: 1
  AE Metabolism and Nutrition Disorders, percent of subjects: (2%)
  AE Musculoskeletal and Connective Tissue Disorders, number of subjects: 1
  AE Musculoskeletal and Connective Tissue Disorders, percent of subjects: (2%)
  AE Neoplasms, number of subjects: 0
  AE Psychiatric Disorders, number of subjects: 3
  AE Psychiatric Disorders, percent of subjects: (6%)
  AE Respiratory, Thoracic and Mediastinal Disorders, percent of subjects: (2%)
  AE Skin and Subcutaneous Tissue Disorders, number of subjects: 0
  AE Vascular Disorders, number of subjects: 0
[4]; onset in study week 4
  AE Any Event, percent of subjects: (4%)
  AE Central Nervous System Disorders, number of subjects: 0
  AE Ear and Labyrinth Disorders, number of subjects: 0
  AE Eye Disorders, number of subjects: 0
  AE Gastrointestinal Disorders, number of subjects: 0
  AE Infections and Infestations, number of subjects: 0
  AE Investigations, number of subjects: 1
  AE Investigations, percent of subjects: (2%)
  AE Metabolism and Nutrition Disorders, number of subjects: 1
  AE Metabolism and Nutrition Disorders, percent of subjects: (2%)
  AE Musculoskeletal and Connective Tissue Disorders, number of subjects: 0
  AE Neoplasms, number of subjects: 0
  AE Psychiatric Disorders, number of subjects: 2
  AE Psychiatric Disorders, percent of subjects: (4%)
  AE Skin and Subcutaneous Tissue Disorders, number of subjects: 0
  AE Vascular Disorders, number of subjects: 0
[4]; onset in study week >4
  AE Any Event, percent of subjects: (2%)
  AE Central Nervous System Disorders, number of subjects: 1
  AE Central Nervous System Disorders, percent of subjects: (2%)
  AE Ear and Labyrinth Disorders, number of subjects: 0
  AE Eye Disorders, number of subjects: 0
  AE Gastrointestinal Disorders, number of subjects: 0
  AE Infections and Infestations, number of subjects: 0
  AE Investigations, number of subjects: 0
  AE Metabolism and Nutrition Disorders, number of subjects: 0
  AE Musculoskeletal and Connective Tissue Disorders, number of subjects: 0
  AE Neoplasms, number of subjects: 0
  AE Psychiatric Disorders, number of subjects: 0
  AE Skin and Subcutaneous Tissue Disorders, number of subjects: 0
  AE Vascular Disorders, number of subjects: 0
